Experimental data: patent US20120066778A1, “CONTROL OF URIC ACID HOMEOSTASIS” (priority 2009, published 2012)

B1: mUox: intracellular variant of the urate oxidase from Aspergillus flavus codon-optimized for expression in mammalian cells (protein, UniProt Q00511 2-302, looked up)
Uricase: SAVKAARYGKDNVRVYKVHKDEKTGVQTVYEMTVCVLLEGEIETSYTKADNSVIVATDSIKNTIYITAKQNPVTPPELFGSILGTHFIEKYNHIHAAHVNIVCHRWTRMDIDGKPHPHSFIRDSEEKRNVQVDVVEGKGIDIKSSLSGLTVLKSTNSQFWGFLRDEYTTLKETWDRILSTDVDATWQWKNFSGLQEVRSHVPKFDATWATAREVTLKTFAEDNSASVQATMYKMAEQILARQQLIETVEYSLPNKHYFEIDLSWHKGLQNTGKNAEVFAPQSDPNGLIKCTVGRSSLKSKL
modifications: codon-optimized for mammalian expression
notes: intracellular variant of the urate oxidase from Aspergillus flavus codon-optimized for expression in mammalian cells

What was measured:
[1] = tested on: UREX sensor circuit (mUTS, hucO8); assay: Uric acid response of UREX-controlled SEAP expression in cultured human cells; type: cell-based; conditions: 5 mM uric acid added to cultures transfected with pCK9 and pCK25, 48 h
Experimental: (d) Functional validation of the UREX sensor circuit. 4×10^4 HeLa cells were co-transfected with the UREX expression vectors pCK9 and pCK25 (see FIG. 1a) and cultivated for 48 h in the presence or absence of 5 mM uric acid before SEAP was quantified in the cell culture supernatant.
(e-g) Urate-dependent dose-response characteristics of UREX in the presence and absence of the human urate transporter URAT1. 3×10^5 HeLa (e), HEK-293 (f) or HT-1080 cells (g) were co-transfected with the UREX sensor plasmids pCK9 and pCK25 (see FIG. 1a) and either pURAT1 (PhCMV-URAT1-pA) or the isogenic control vector pcDNA3.1. The transfected populations were cultivated in medium supplemented with different uric acid concentrations and resulting SEAP levels were profiled after 48 h.
(b) Urate-based dose-response profile of the triple-transgenic HEK-293UREX15 cell line stably engineered for UREX-controlled SEAP and constitutive URAT1 expression. 5×10^4 HEK-293UREX15 were cultivated in the presence of different urate concentrations and SEAP levels were quantified in the culture supernatant after 72 h.
(c) Reversibility of the UREX-based uric acid sensor circuit. 2×10^5 HEK-293UREX15 cells were cultivated for 10 days while alternating uric acid concentrations from 0 to 5 mM every 72 h (arrows). […]

uric acid = assay: Urate reduction in culture medium by mUox/smUox-expressing HeLaURAT1 cells; type: cell-based, human; conditions: HeLaURAT1, 0.5 mM uric acid, 72 h, constitutive or mUTS-controlled expression
Experimental: (a) Profiling of urate reduction mediated by constitutive or UREX-controlled expression of an intracellular (mUox) or secretion-engineered (smUox) urate oxidase variant. 2×10^5 HeLaURAT1 cells were co-transfected with either (i) pCK65 (PUREX8-smUox-pA) and isogenic control vector pcDNA3.1, (ii) pCK65 (PUREX8-smUox-pA) and pCK25 (PhEF1α-mUTS-pA), (iii) pCK67 (PUREX8-mUox-pA) and pcDNA3.1 or (iv) pCK67 (PUREX8-mUox-pA) and pCK25 (PhEF1α-mUTS-pA). The cells were cultivated for 72 h with 0.5 mM uric acid before urate levels were determined in the culture supernatant.
(b) Urate degradation profiles UREX-controlled smUox expression. […]
SEAP levels are quantified in cell culture supernatants and mouse serum using a standard p-nitrophenylphosphate-based light absorbance time course (Berger, J., Hauber, J., Hauber, R., Geiger, R. & Cullen, B. R., Gene 66, 1-10 (1988)). Uric acid levels are assessed in cell culture supernatants, murine serum or urine using the Amplex® Red uric acid/uricase assay kit (Invitrogen, Basel, Switzerland, Cat. No. A22181) according to the manufacturer's protocol. […] The addition of uricase triggers the enzymatic conversion of uric acid to allantoin, CO2 and H2O2 that reacts, in the presence of horseradish peroxidase stoichiometrically with Amplex Red reagent to generate the red-fluorescent oxidation product resorufin which can be quantified at 585 nm.

Molecule	effect on SEAP expression [1]	reduction of uric acid in the culture medium (uric acid)
O=c1[nH]c(=O)c2[nH]c(=O)[nH]c2[nH]1 [uric acid, 7,9-dihydro-3H-purine-2,6,8-trione]	derepresses SEAP expression	
B1		reduces uric acid
